The values below come from patent publication US8912180B2, “Heterocyclic compound” (Astellas Pharma Inc., priority 2010, dated 2014).

For experiment [1], the target named is T1, human PI3Kδ enzyme (Homo sapiens, UniProt O00329).
T1 construct: purchased Millipore Corporation 14-604
Description: PI3Kδ enzyme inhibitory activity (PI3-Kinase HTRF Assay kit). The experiment is classed as biochemical. The conditions noted are these: human PI3Kδ 10 ng/well, ATP 30 μM, PIP2 10 μM, room temperature 30 minutes. The protocol:
1. PI3Kδ Enzyme Inhibitory Activity
For the experiment, a PI3-Kinase HTRF Assay kit (Millipore Corporation, Catalogue No. 33-016) and a human PI3Kδ enzyme (Millipore Corporation, Catalogue No. 14-604) were used. The measurement method was in accordance with the appended instructions. The overview thereof is as follows.
PI3Kδ (10 ng/well), phosphatidylinositol-4,5-bisphosphate (10 μM), ATP (30 μM), and the test compound were mixed in a 384-well plate (total 20 μL), and incubated at room temperature for 30 minutes. EDTA and biotinylated phosphatidylinositol-3,4,5-triphosphate were added thereto to stop the reaction. Thereafter, a Europium labeled anti-GST antibody, a GST bond GRP1 PH domain, and streptavidin-APC were added thereto, followed by incubation overnight. An HTRF ratio was measured using an HTRF plate reader.
In general terms: TR-FRET usually uses a lanthanide donor and a delayed reading to cut background.

For experiment [2], the target named is T2, Human PI3Kα (Homo sapiens, UniProt P42336).
T2 construct: purchased Millipore Corporation 14-602
Description: PI3Kα enzyme inhibitory activity (Kinase-Glo Plus luminescence). The experiment is classed as biochemical. The conditions noted are these: human PI3Kα 12 ng/well, phosphatidylinositol 0.2 μg/well, 37° C. 3 hours. The protocol:
2. PI3Kα Enzyme Inhibitory Activity
Human PI3Kα (12 ng/well, Millipore Corporation, Catalogue No. 14-602), phosphatidylinositol (0.2 μg/well), and the test compound were mixed in a 384-well plate in a reaction buffer (50 mM Hepes, 10 mM NaCl, 10 mM MgCl2, 2 mM EGTA, 2 mM DTT, pH 7.3) (total 10 μl), and incubated at 37° C. for 3 hours. After the reaction, 10 μL of a Kinase-Glo Plus reagent (Promega, Catalogue No. V3772) was added thereto, and a luminescence was measured with a luminometer.

Experiment [3] relates to IL-2 production. Description: Rat in vivo IL-2 production inhibition test (Concanavalin A induced). The conditions noted are these: 10 mg/kg oral, 2 hours before Concanavalin A 15 mg/kg iv; blood IL-2 at 3 hours, vs vehicle control; male LEW rats. On the procedure:
3. Rat In Vivo IL-2 Production Inhibition Test
For the experiment, male LEW/CrlCrlj rats (Charles River Laboratories, Japan, Inc.) (6-week old, body weight 130 to 180 g) were used. The test compound was suspended in a 0.5% methyl cellulose solution and orally administered at 5 mL/kg. IL-2 production was induced by tail vein injection of Concanavalin A (Funakoshi Corporation, Catalogue No. L-1000) at a dose of 15 mg/kg.
The test was carried out according to the protocol shown below. At 2 hours or 16 hours before administration of Concanavalin A, the test compound was orally administered to rats. At 3 hours after administration of Concanavalin A, blood was collected. The IL-2 concentration in blood was quantified using an ELISA kit (R&D Systems, Inc., Catalogue No. DY502E). An inhibition rate was calculated from the amount of IL-2 produced in a group administered with the test compound with respect to the amount of the IL-2 produced in a control group administered with a vehicle.

Experiment [4] relates to Spleen cells prepared from male LEW/CrlCrlj rats (B cell proliferation). Description: Rat B cell proliferation inhibition test (anti-rat IgM, [3H]thymidine). In kind it is cell-based. The conditions noted are these: anti-rat IgM 3 μg/well, 48 hours culture. The protocol:
4. Rat B Cell Proliferation Inhibition Test
Spleen cells (1.0×10^5 cells/well) prepared from male LEW/CrlCrlj rats (Charles River Laboratories, Japan, Inc.), mouse F(ab′)2 fragment anti-rat IgM (3 μg/well, SouthernBiotech Associates, Inc., Catalogue No. 3082-14) and the test compound dissolved in DMSO (final DMSO concentration 0.1%) were mixed in a 96-well plate using a 10% FCS-containing RPMI-1640 culture medium (total 200 μL). They were cultured in a CO2 incubator for 48 hours and [^3H]thymidine (925 GBq/mmol, Moravek Biochemicals, Inc., Catalogue No. MT6038) was added thereto at 0.037 MBq/well at 4 hours before completion of culture. Cells were harvested in a GF/C glass filter using a cell harvester, and a radioactivity on the filter was measured using a liquid scintillation counter.

As usually defined, the IC50 is the concentration that inhibits the measured activity by half.

T2 sequence (P42336 whole entry): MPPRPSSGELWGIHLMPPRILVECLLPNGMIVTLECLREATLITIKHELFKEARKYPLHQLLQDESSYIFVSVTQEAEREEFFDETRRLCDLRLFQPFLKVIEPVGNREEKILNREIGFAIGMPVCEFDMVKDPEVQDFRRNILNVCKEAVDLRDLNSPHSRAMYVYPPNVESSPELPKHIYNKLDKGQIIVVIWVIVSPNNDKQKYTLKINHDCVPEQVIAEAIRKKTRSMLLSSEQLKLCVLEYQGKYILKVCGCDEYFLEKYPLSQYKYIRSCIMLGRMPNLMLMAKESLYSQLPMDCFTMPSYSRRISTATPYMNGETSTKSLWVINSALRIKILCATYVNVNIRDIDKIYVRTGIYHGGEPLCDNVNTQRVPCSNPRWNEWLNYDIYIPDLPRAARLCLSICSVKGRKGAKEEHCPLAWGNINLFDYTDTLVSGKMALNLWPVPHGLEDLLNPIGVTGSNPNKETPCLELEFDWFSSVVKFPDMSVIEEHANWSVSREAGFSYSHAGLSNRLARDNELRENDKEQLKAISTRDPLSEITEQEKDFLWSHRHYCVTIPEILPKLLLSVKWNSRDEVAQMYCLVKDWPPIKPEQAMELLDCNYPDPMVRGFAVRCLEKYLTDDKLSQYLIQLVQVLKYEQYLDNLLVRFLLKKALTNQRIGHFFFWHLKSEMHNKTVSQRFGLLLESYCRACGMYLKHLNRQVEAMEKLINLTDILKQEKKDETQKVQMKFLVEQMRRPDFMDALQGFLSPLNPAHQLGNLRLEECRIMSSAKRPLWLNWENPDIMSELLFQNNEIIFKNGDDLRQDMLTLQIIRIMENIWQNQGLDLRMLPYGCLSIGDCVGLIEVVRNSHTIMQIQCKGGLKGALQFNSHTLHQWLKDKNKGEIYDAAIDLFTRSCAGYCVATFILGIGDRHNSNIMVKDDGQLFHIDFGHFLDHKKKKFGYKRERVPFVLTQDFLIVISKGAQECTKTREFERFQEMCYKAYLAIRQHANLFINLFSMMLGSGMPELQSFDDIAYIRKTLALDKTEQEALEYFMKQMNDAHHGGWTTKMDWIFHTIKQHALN
T2 sequence (P27986 whole entry partner): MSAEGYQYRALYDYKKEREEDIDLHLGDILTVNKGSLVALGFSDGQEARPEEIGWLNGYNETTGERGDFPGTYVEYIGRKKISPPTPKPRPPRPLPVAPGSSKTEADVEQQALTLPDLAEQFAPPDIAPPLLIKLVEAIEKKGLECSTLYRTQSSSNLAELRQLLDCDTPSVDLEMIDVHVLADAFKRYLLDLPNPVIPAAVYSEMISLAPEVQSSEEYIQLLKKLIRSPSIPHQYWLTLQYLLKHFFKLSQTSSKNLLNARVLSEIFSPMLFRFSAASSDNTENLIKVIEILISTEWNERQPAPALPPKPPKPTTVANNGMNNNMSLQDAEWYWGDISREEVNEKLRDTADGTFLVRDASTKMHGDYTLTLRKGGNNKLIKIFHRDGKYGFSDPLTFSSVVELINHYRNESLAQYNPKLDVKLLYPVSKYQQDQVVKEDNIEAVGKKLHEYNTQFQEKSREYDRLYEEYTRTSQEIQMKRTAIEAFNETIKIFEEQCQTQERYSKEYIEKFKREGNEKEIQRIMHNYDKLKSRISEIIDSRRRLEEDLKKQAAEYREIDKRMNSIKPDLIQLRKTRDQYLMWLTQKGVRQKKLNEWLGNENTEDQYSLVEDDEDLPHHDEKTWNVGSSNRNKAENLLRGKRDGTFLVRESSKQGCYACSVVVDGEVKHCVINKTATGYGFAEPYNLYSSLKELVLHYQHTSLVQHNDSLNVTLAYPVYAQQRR
T1 sequence (O00329 whole entry): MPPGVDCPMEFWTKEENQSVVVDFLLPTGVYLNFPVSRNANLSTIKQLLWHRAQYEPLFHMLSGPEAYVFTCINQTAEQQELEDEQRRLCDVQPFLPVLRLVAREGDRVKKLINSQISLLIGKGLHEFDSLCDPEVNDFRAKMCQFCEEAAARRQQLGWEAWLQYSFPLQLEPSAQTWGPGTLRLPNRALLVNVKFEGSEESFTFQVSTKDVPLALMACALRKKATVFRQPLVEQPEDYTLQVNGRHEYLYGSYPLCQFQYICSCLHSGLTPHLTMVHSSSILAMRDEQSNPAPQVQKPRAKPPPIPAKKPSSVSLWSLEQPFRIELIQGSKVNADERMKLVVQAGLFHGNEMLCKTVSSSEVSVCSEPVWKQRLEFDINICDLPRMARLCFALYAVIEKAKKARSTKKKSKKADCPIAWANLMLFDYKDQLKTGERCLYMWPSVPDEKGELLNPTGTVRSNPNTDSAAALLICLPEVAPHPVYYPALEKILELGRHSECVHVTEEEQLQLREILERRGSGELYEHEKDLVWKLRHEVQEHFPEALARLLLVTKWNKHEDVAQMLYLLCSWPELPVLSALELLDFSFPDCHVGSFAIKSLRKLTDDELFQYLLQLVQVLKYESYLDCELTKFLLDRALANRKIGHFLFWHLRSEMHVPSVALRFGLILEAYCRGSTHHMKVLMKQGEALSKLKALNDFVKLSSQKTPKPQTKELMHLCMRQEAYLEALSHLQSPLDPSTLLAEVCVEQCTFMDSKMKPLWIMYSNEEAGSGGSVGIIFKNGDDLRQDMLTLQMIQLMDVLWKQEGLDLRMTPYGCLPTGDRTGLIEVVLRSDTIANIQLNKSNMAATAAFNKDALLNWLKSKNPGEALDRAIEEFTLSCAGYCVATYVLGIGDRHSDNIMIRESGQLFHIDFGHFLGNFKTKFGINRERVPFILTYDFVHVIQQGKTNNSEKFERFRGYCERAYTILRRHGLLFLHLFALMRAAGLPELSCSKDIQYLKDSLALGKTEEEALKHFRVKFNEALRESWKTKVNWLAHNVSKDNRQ
T1 sequence (P27986 whole entry partner): as the sequence (P27986 whole entry partner) above

Turning to `CN1CCC(CNc2nc(N3CCOCC3)nc(-n3c(C(F)F)nc4ccccc43)n2)CC1` [Example A4], the concentration for half-maximal inhibition (IC50) came out at 31 nM in experiment [1] and 730 nM in experiment [2]. In addition, in experiment [3], the “inhibitory activity (IL-2 production inhibition rate)” value worked out at 58%.
The like results for `CC(=O)N1CCC(N2CCC(CNc3nc(N4CCOCC4)cc(-n4c(C(F)F)nc5ccccc54)n3)CC2)CC1` [Example 33] were, in that order, 11 nM, more than 3000 nM and 75%.
As to `CCOC(=O)N1CCN(c2ccc(CNc3nc(N4CCOCC4)cc(-n4c(C(F)F)nc5ccccc54)n3)cc2)CC1` [Example 158], the IC50 came to 11 nM in experiment [1], 10 nM in experiment [4] and 6700 nM in experiment [2].
The like results for `O=C(C1CCOCC1)N1CC[C@H](Nc2cc(-n3c(C(F)F)nc4ccccc43)nc(N3CCOCC3)n2)C1` [A293] were, in that order, 19 nM, 2.6 nM and 3200 nM.
For `O=C(CC1CCCO1)N1CC[C@H](Nc2cc(-n3c(C(F)F)nc4ccccc43)nc(N3CCOCC3)n2)C1` (stereo partly drawn) [A299], in that order: 25 nM, 2.5 nM and 4900 nM.
For `CC(C)(O)CNC12CCC(CNc3nc(N4CCOCC4)cc(-n4c(C(F)F)nc5ccccc54)n3)(CC1)CC2` [Example 85, 1-({4-[({4-[2-(difluoromethyl)-1H-benzimidazol-1-yl]-6-(morpholin-4-yl)pyrimidin-2-yl}amino)methyl]bicyclo[2.2.2]oct-1-yl}amino)-2-methylpropan-2-ol], in that order: 21 nM, 2.6 nM and 5500 nM.
Turning to `FC(F)c1nc2ccccc2n1-c1cc(N[C@H]2C[C@@H]3C[C@H](N4CCOCC4)C[C@@H]3C2)nc(N2CCOCC2)n1` [Example 195], the values for the IC50 in experiment [1], in experiment [4] and in experiment [2] were 4.1 nM, 3 nM and more than 10000 nM, respectively.
The like results for `COC(=O)N[C@H]1CCN([C@H]2CC[C@H](Nc3nc(N4CCOCC4)cc(-n4c(C(F)F)nc5ccccc54)n3)CC2)C1=O` [Example 248, methyl{(3S)-1-[trans-4-({4-[2-(difluoromethyl)-1H-benzimidazol-1-yl]-6-(morpholin-4-yl)pyrimidin-2-yl}amino)cyclohexyl]-2-oxopyrrolidin-3-yl}carbamate] were, in that order, 34 nM, 1.4 nM and 720 nM.
As to `O=C(CC1CCOCC1)N1CC[C@H](Nc2cc(-n3c(C(F)F)nc4ccccc43)nc(N3CCOCC3)n2)C1` [A300], the IC50 in experiment [1] is 26 nM; in experiment [4] it was 2.6 nM; in experiment [2], 6500 nM.
Consider `CC1(NCC(=O)N[C@H]2CC[C@H](Oc3cc(-n4c(C(F)F)nc5ccccc54)nc(N4CCOCC4)n3)CC2)CC1` [Example 137], for which the IC50 is 5.2 nM in experiment [1], 4.6 nM in experiment [4] and more than 10000 nM in experiment [2].
The like results for `O=C1CC[C@@H](C(=O)N2CC(Nc3cc(-n4c(C(F)F)nc5ccccc54)nc(N4CCOCC4)n3)C2)N1` [A562] were, in that order, 14 nM, 3.9 nM and 2900 nM.
For `O=C(CNC1CCCCC1)N[C@H]1CC[C@H](Oc2cc(-n3c(C(F)F)nc4ccccc43)nc(N3CCOCC3)n2)CC1` [Example 135], in that order: 3 nM, 2.5 nM and 8000 nM.
`O=C([C@H]1CCCO1)N1CC[C@H](Nc2cc(-n3c(C(F)F)nc4ccccc43)nc(N3CCOCC3)n2)C1` [A290]: the results for the IC50 in experiment [1], in experiment [4] and in experiment [2] were 7.4 nM, 2.2 nM and 3800 nM, respectively.
Regarding `FC(F)c1nc2ccccc2n1-c1cc(N2CCOCC2)nc(NCC2CCN(C3CCCCC3)CC2)n1` [Example 193], the figures for the IC50 in experiment [1], in experiment [4] and in experiment [2] were 4.9 nM, 4.1 nM and 8200 nM, respectively.
The like results for `O=C(CN1CCCCC1)N1CC[C@H](Nc2cc(-n3c(C(F)F)nc4ccccc43)nc(N3CCOCC3)n2)C1` [A475] were, in that order, 25 nM, 1.1 nM and 1400 nM.
On to `COC(=O)N[C@@H]1CCN([C@H]2CC[C@H](Oc3cc(-n4c(C(F)F)nc5ccccc54)nc(N4CCOCC4)n3)CC2)C1=O` [Example 389], for which the figures for the IC50 in experiment [1], in experiment [4] and in experiment [2] were 11 nM, 4.4 nM and more than 10000 nM, respectively.
The like results for `O=C(C1CCOC1)N1CC[C@H](Oc2cc(-n3c(C(F)F)nc4ccccc43)nc(N3CCOCC3)n2)C1` (stereo partly drawn) [A449] were, in that order, 20 nM, 0.4 nM and 1400 nM.
For `COC(=O)N[C@H]1CCN([C@H]2CC[C@H](Oc3cc(-n4c(C(F)F)nc5ccccc54)nc(N4CCOCC4)n3)CC2)C1=O` [Example 87, methyl{(3S)-1-[trans-4-({6-[2-(difluoromethyl)-1H-benzimidazol-1-yl]-2-(morpholin-4-yl)pyrimidin-4-yl}oxy)cyclohexyl]-2-oxopyrrolidin-3-yl}carbamate], the IC50 in experiment [1] was 4.9 nM; in experiment [4], 3.5 nM; in experiment [2] it was more than 10000 nM.
Turning to `OCC1CCC(N2CCC(CNc3nc(N4CCOCC4)cc(-n4c(C(F)F)nc5ccccc54)n3)CC2)CC1` (stereo not drawn) [Example 29], the half-maximal inhibitory concentration (IC50) was 45 nM in experiment [1] and more than 3000 nM in experiment [2]. Also, the “inhibitory activity (IL-2 production inhibition rate)” value in experiment [3] was determined as 51%.
In the case of `NC1(C(=O)N[C@H]2CC[C@H](Oc3cc(-n4c(C(F)F)nc5ccccc54)nc(N4CCOCC4)n3)CC2)CCC1` [Example 215], the results for the 50% inhibitory concentration (IC50) in experiment [1], in experiment [4] and in experiment [2] were 13 nM, 6.7 nM and more than 10000 nM, respectively.
The like results for `FC(F)c1nc2ccccc2n1-c1cc(OCC2CCN(C3CCOCC3)CC2)nc(N2CCOCC2)n1` [Example 40] were, in that order, 20 nM, 9 nM and more than 10000 nM.
For `NC1(C(=O)N[C@H]2CC[C@H](Oc3cc(-n4c(C(F)F)nc5ccccc54)nc(N4CCOCC4)n3)CC2)CCCC1` [Example 216], in that order: 13 nM, 5.7 nM and more than 10000 nM.
The like results for `CCOC(=O)N[C@@H]1CCN([C@H]2CC[C@H](Oc3cc(-n4c(C(F)F)nc5ccccc54)nc(N4CCOCC4)n3)CC2)C1=O` [Example 423] were, in that order, 24 nM, 3.1 nM and more than 10000 nM.
As to `C[C@H]1COCCN1c1cc(-n2c(C(F)F)nc3ccccc32)nc(NCC2CCN(C3CCOCC3)CC2)n1` [Example 38], the IC50 in experiment [1] came out at 23 nM; in experiment [4], 2.9 nM; in experiment [2], 2200 nM.
Consider `COC(=O)N1CCC(C(=O)N2CC[C@H](Nc3cc(-n4c(C(F)F)nc5ccccc54)nc(N4CCOCC4)n3)C2)CC1` [A298], for which the IC50 in experiment [1] was found to be 28 nM; in experiment [4], 1.2 nM; in experiment [2] it was 3500 nM.
For `CC(=O)N1CCC(CC(=O)N2CC[C@H](Nc3cc(-n4c(C(F)F)nc5ccccc54)nc(N4CCOCC4)n3)C2)CC1` [A463], in that order: 27 nM, 1.4 nM and 3100 nM.
The like results for `Cc1ccc2nc(C(F)F)n(-c3cc(N4CCOCC4)nc(NC[C@H]4CC[C@H](N5CCOCC5)CC4)n3)c2c1` [Example 132] were, in that order, 12 nM, 1.5 nM and more than 10000 nM.
The like results for `CN1CC(C(=O)N2CC[C@H](Nc3cc(-n4c(C(F)F)nc5ccccc54)nc(N4CCOCC4)n3)C2)CC1=O` (stereo partly drawn) [A466] were, in that order, 15 nM, 1.8 nM and 2000 nM.
